Source: patent US11021457B2, “Class of isoindolone-imide ring-1,3-dione-2-ene compounds, composition and use thereof” (WIGEN BIOMEDICINE TECHNOLOGY (SHANGHAI) CO., LTD., priority 2017, dated 2021)

Each compound was assayed on MDA-MB-453 (assay: Inhibition of tumor cell proliferation, CellTiter-Glo, MDA-MB-453). Conditions: Homo sapiens, MDA-MB-453; compound concentration 50 μM, 72 hours; read-out: Inhibitory activity against proliferation (cell survival rate) MDA-MB-453.
Format: cell-based
Method: (§1) For various cell lines, the corresponding complete medium was used, and culture was carried out in an incubator at 37° C. with 5% CO2. The cells were counted, and inoculated into a 96-well plate at 2000-10000 cells/100 μl per well according to the cell volume and growth rate. The suspended cells were treated immediately, and the adherent cells were treated after adherence. The CellTiter-Glo method was used to detect the changes in cell viability 72 hours after the administration, and the cell survival rate at different concentrations was calculated by a formula: Survival rate (%)=(RLU of treatment well−RLU of blank well)/(RLU of control well−RLU of blank well)×100.
(§2) Method for expressing the inhibitory activity of the compounds against the proliferation of tumor cells: Evaluation was made based on the cell survival rate at a compound concentration of 50 μM. 60≤survival rate (%)<90 is considered to have low inhibitory activity against the proliferation of tumor cells (+); 30<survival rate (%)≤60 is considered to have moderate inhibitory activity against the proliferation of tumor cells (++); and survival rate (%)≤30 is considered to have high inhibitory activity against the proliferation of tumor cells (+++).

Row | Structure (SMILES) | cell survival rate (%) at 50 µM
1 | O=C1CCC(N2Cc3c(NC(=O)OCc4ccc(NC=C5C(=O)CC(c6ccccc6)CC5=O)nc4)cccc3C2=O)C(=O)N1 (stereo not drawn) [Compound 82] | 30 to 60%

Same assay, conditions: compound concentration 50 μM, 72 hours

Row | Structure (SMILES) | Inhibitory activity against proliferation (cell survival rate) MDA-MB-453
2 | O=C1CCC(N2Cc3c(NC(=O)c4ccc(NC=C5C(=O)CC(c6ccccc6)CC5=O)nc4)cccc3C2=O)C(=O)N1 (stereo not drawn) [Compound 66] | ++ (30<survival rate (%)≤60)
3 | O=C1CCC(N2Cc3c(NC(=O)c4cccnc4NC=C4C(=O)CC(c5ccccc5)CC4=O)cccc3C2=O)C(=O)N1 (stereo not drawn) [Compound 67] | ++ (30<survival rate (%)≤60)
4 | O=C1CCC(N2C(=O)c3cccc(NS(=O)(=O)N4CCN(CCNC=C5C(=O)CC(c6ccccc6)CC5=O)CC4)c3C2=O)C(=O)N1 (stereo not drawn) [Compound 71] | +++ (survival rate (%)≤30)
5 | O=C1CCC(N2Cc3c(NS(=O)(=O)N4CCN(CCNC=C5C(=O)CC(c6ccccc6)CC5=O)CC4)cccc3C2=O)C(=O)N1 (stereo not drawn) [Compound 72] | + (60≤survival rate (%)<90)
6 | CC(Nc1cccc2c1CN(C1CCC(=O)NC1=O)C2=O)=C1C(=O)CC(c2ccccc2)CC1=O (stereo not drawn) [Compound 73] | +++ (survival rate (%)≤30)
7 | O=C1CCC(N2Cc3c(NC(CO)=C4C(=O)CC(c5ccccc5)CC4=O)cccc3C2=O)C(=O)N1 (stereo not drawn) [Compound 74] | + (60≤survival rate (%)<90)

Each compound was assayed on BxPC-3 (assay: Inhibition of tumor cell proliferation, CellTiter-Glo, BxPC-3). Conditions: Homo sapiens, BXPC-3; compound concentration 50 μM, 72 hours; read-out: Inhibitory activity against proliferation (cell survival rate) BxPC-3.
Format: cell-based
Method: as §1, §2

Row | Structure (SMILES) | cell survival rate (%) at 50 µM
8 | O=C1CCC(N2Cc3c(NC(=O)OCc4ccc(NC=C5C(=O)CC(c6ccccc6)CC5=O)nc4)cccc3C2=O)C(=O)N1 (stereo not drawn) [Compound 82] | 60 to 90%

Same assay, conditions: compound concentration 50 μM, 72 hours

Row | Structure (SMILES) | Inhibitory activity against proliferation (cell survival rate) BxPC-3
9 | O=C1CCC(N2Cc3c(NC(=O)c4ccc(NC=C5C(=O)CC(c6ccccc6)CC5=O)nc4)cccc3C2=O)C(=O)N1 (stereo not drawn) [Compound 66] | + (60≤survival rate (%)<90)
10 | O=C1CCC(N2Cc3c(NC(=O)c4cccnc4NC=C4C(=O)CC(c5ccccc5)CC4=O)cccc3C2=O)C(=O)N1 (stereo not drawn) [Compound 67] | + (60≤survival rate (%)<90)
11 | O=C1CCC(N2C(=O)c3cccc(NS(=O)(=O)N4CCN(CCNC=C5C(=O)CC(c6ccccc6)CC5=O)CC4)c3C2=O)C(=O)N1 (stereo not drawn) [Compound 71] | + (60≤survival rate (%)<90)
12 | O=C1CCC(N2Cc3c(NS(=O)(=O)N4CCN(CCNC=C5C(=O)CC(c6ccccc6)CC5=O)CC4)cccc3C2=O)C(=O)N1 (stereo not drawn) [Compound 72] | + (60≤survival rate (%)<90)
13 | CC(Nc1cccc2c1CN(C1CCC(=O)NC1=O)C2=O)=C1C(=O)CC(c2ccccc2)CC1=O (stereo not drawn) [Compound 73] | + (60≤survival rate (%)<90)
14 | O=C1CCC(N2Cc3c(NC(CO)=C4C(=O)CC(c5ccccc5)CC4=O)cccc3C2=O)C(=O)N1 (stereo not drawn) [Compound 74] | + (60≤survival rate (%)<90)

These compounds were tested on A549 (assay: Inhibition of tumor cell proliferation, CellTiter-Glo, A549). Conditions: Homo sapiens, A549; compound concentration 50 μM, 72 hours; read-out: Inhibitory activity against proliferation (cell survival rate) A549.
Format: cell-based
Method: as §1, §2

Row | Structure (SMILES) | cell survival rate (% of control) at 50 µM
15 | O=C1CCC(N2Cc3c(NC(=O)OCc4ccc(NC=C5C(=O)CC(c6ccccc6)CC5=O)nc4)cccc3C2=O)C(=O)N1 (stereo not drawn) [Compound 82] | ≤ 30%

Same assay, conditions: compound concentration 50 μM, 72 hours

Row | Structure (SMILES) | Inhibitory activity against proliferation (cell survival rate) A549
16 | O=C1CCC(N2Cc3c(NC(=O)c4ccc(NC=C5C(=O)CC(c6ccccc6)CC5=O)nc4)cccc3C2=O)C(=O)N1 (stereo not drawn) [Compound 66] | +++ (survival rate (%)≤30)
17 | O=C1CCC(N2Cc3c(NC(=O)c4cccnc4NC=C4C(=O)CC(c5ccccc5)CC4=O)cccc3C2=O)C(=O)N1 (stereo not drawn) [Compound 67] | +++ (survival rate (%)≤30)
18 | O=C1CCC(N2C(=O)c3cccc(NS(=O)(=O)N4CCN(CCNC=C5C(=O)CC(c6ccccc6)CC5=O)CC4)c3C2=O)C(=O)N1 (stereo not drawn) [Compound 71] | +++ (survival rate (%)≤30)
19 | O=C1CCC(N2Cc3c(NS(=O)(=O)N4CCN(CCNC=C5C(=O)CC(c6ccccc6)CC5=O)CC4)cccc3C2=O)C(=O)N1 (stereo not drawn) [Compound 72] | + (60≤survival rate (%)<90)
20 | CC(Nc1cccc2c1CN(C1CCC(=O)NC1=O)C2=O)=C1C(=O)CC(c2ccccc2)CC1=O (stereo not drawn) [Compound 73] | +++ (survival rate (%)≤30)
21 | O=C1CCC(N2Cc3c(NC(CO)=C4C(=O)CC(c5ccccc5)CC4=O)cccc3C2=O)C(=O)N1 (stereo not drawn) [Compound 74] | + (60≤survival rate (%)<90)

What follows are compounds tested on SU-DHL6 (assay: Inhibition of tumor cell proliferation, CellTiter-Glo, SU-DHL6). Conditions: Homo sapiens, SU-DHL-6; compound concentration 50 μM, 72 hours; read-out: Inhibitory activity against proliferation (cell survival rate) SU-DHL6.
Format: cell-based
Method: as §1, §2

Row | Structure (SMILES) | cell survival rate (% of control) at 50 µM
22 | O=C1CCC(N2Cc3c(NC(=O)OCc4ccc(NC=C5C(=O)CC(c6ccccc6)CC5=O)nc4)cccc3C2=O)C(=O)N1 (stereo not drawn) [Compound 82] | ≤ 30%

Same assay, conditions: compound concentration 50 μM, 72 hours

Row | Structure (SMILES) | Inhibitory activity against proliferation (cell survival rate) SU-DHL6
23 | O=C1CCC(N2Cc3c(NC(=O)c4ccc(NC=C5C(=O)CC(c6ccccc6)CC5=O)nc4)cccc3C2=O)C(=O)N1 (stereo not drawn) [Compound 66] | +++ (survival rate (%)≤30)
24 | O=C1CCC(N2Cc3c(NC(=O)c4cccnc4NC=C4C(=O)CC(c5ccccc5)CC4=O)cccc3C2=O)C(=O)N1 (stereo not drawn) [Compound 67] | +++ (survival rate (%)≤30)
25 | O=C1CCC(N2C(=O)c3cccc(NS(=O)(=O)N4CCN(CCNC=C5C(=O)CC(c6ccccc6)CC5=O)CC4)c3C2=O)C(=O)N1 (stereo not drawn) [Compound 71] | +++ (survival rate (%)≤30)
26 | O=C1CCC(N2Cc3c(NS(=O)(=O)N4CCN(CCNC=C5C(=O)CC(c6ccccc6)CC5=O)CC4)cccc3C2=O)C(=O)N1 (stereo not drawn) [Compound 72] | +++ (survival rate (%)≤30)
27 | CC(Nc1cccc2c1CN(C1CCC(=O)NC1=O)C2=O)=C1C(=O)CC(c2ccccc2)CC1=O (stereo not drawn) [Compound 73] | +++ (survival rate (%)≤30)
28 | O=C1CCC(N2Cc3c(NC(CO)=C4C(=O)CC(c5ccccc5)CC4=O)cccc3C2=O)C(=O)N1 (stereo not drawn) [Compound 74] | + (60≤survival rate (%)<90)

These compounds were tested on RPMI-8226 (assay: Inhibition of tumor cell proliferation, CellTiter-Glo, RPMI-8226). Conditions: Homo sapiens, RPMI-8226; compound concentration 50 μM, 72 hours; read-out: Inhibitory activity against proliferation (cell survival rate) RPMI-8226.
Format: cell-based
Method: as §1, §2

Row | Structure (SMILES) | cell survival rate (% of control) at 50 µM
29 | O=C1CCC(N2Cc3c(NC(=O)OCc4ccc(NC=C5C(=O)CC(c6ccccc6)CC5=O)nc4)cccc3C2=O)C(=O)N1 (stereo not drawn) [Compound 82] | 60 to 90%

Same assay, conditions: compound concentration 50 μM, 72 hours

Row | Structure (SMILES) | Inhibitory activity against proliferation (cell survival rate) RPMI-8226
30 | O=C1CCC(N2Cc3c(NC(=O)c4ccc(NC=C5C(=O)CC(c6ccccc6)CC5=O)nc4)cccc3C2=O)C(=O)N1 (stereo not drawn) [Compound 66] | + (60≤survival rate (%)<90)
31 | O=C1CCC(N2Cc3c(NC(=O)c4cccnc4NC=C4C(=O)CC(c5ccccc5)CC4=O)cccc3C2=O)C(=O)N1 (stereo not drawn) [Compound 67] | +++ (survival rate (%)≤30)
32 | O=C1CCC(N2C(=O)c3cccc(NS(=O)(=O)N4CCN(CCNC=C5C(=O)CC(c6ccccc6)CC5=O)CC4)c3C2=O)C(=O)N1 (stereo not drawn) [Compound 71] | +++ (survival rate (%)≤30)
33 | O=C1CCC(N2Cc3c(NS(=O)(=O)N4CCN(CCNC=C5C(=O)CC(c6ccccc6)CC5=O)CC4)cccc3C2=O)C(=O)N1 (stereo not drawn) [Compound 72] | + (60≤survival rate (%)<90)
34 | CC(Nc1cccc2c1CN(C1CCC(=O)NC1=O)C2=O)=C1C(=O)CC(c2ccccc2)CC1=O (stereo not drawn) [Compound 73] | + (60≤survival rate (%)<90)
35 | O=C1CCC(N2Cc3c(NC(CO)=C4C(=O)CC(c5ccccc5)CC4=O)cccc3C2=O)C(=O)N1 (stereo not drawn) [Compound 74] | + (60≤survival rate (%)<90)

The compounds below were run on K562 (assay: Inhibition of tumor cell proliferation, CellTiter-Glo, K562). Conditions: Homo sapiens, K562; compound concentration 50 μM, 72 hours; read-out: Inhibitory activity against proliferation (cell survival rate) K562.
Format: cell-based
Method: as §1, §2

Row | Structure (SMILES) | cell survival rate (%) at 50 µM
36 | O=C1CCC(N2Cc3c(NC(=O)OCc4ccc(NC=C5C(=O)CC(c6ccccc6)CC5=O)nc4)cccc3C2=O)C(=O)N1 (stereo not drawn) [Compound 82] | 60 to 90%

Same assay, conditions: compound concentration 50 μM, 72 hours

Row | Structure (SMILES) | Inhibitory activity against proliferation (cell survival rate) K562
37 | O=C1CCC(N2Cc3c(NC(=O)c4ccc(NC=C5C(=O)CC(c6ccccc6)CC5=O)nc4)cccc3C2=O)C(=O)N1 (stereo not drawn) [Compound 66] | +++ (survival rate (%)≤30)
38 | O=C1CCC(N2Cc3c(NC(=O)c4cccnc4NC=C4C(=O)CC(c5ccccc5)CC4=O)cccc3C2=O)C(=O)N1 (stereo not drawn) [Compound 67] | +++ (survival rate (%)≤30)
39 | O=C1CCC(N2C(=O)c3cccc(NS(=O)(=O)N4CCN(CCNC=C5C(=O)CC(c6ccccc6)CC5=O)CC4)c3C2=O)C(=O)N1 (stereo not drawn) [Compound 71] | +++ (survival rate (%)≤30)
40 | O=C1CCC(N2Cc3c(NS(=O)(=O)N4CCN(CCNC=C5C(=O)CC(c6ccccc6)CC5=O)CC4)cccc3C2=O)C(=O)N1 (stereo not drawn) [Compound 72] | +++ (survival rate (%)≤30)
41 | CC(Nc1cccc2c1CN(C1CCC(=O)NC1=O)C2=O)=C1C(=O)CC(c2ccccc2)CC1=O (stereo not drawn) [Compound 73] | +++ (survival rate (%)≤30)
42 | O=C1CCC(N2Cc3c(NC(CO)=C4C(=O)CC(c5ccccc5)CC4=O)cccc3C2=O)C(=O)N1 (stereo not drawn) [Compound 74] | + (60≤survival rate (%)<90)
